Reference: patent publication US20250144067A1, “PERSONALIZED STARVATION THERAPY FOR CANCER” (Faeth Therapeutics, Inc., priority 2021, published 2025)
Structures can show the parent of a compound that is named as a salt.

These molecules were tested on NCI-H292 lung cancer cells (assay: FDA drug screening, complete media vs cholesterol-free media without statin (TABLE 1)). Settings: Complete minus Cholesterol-free; >0 enhanced anti-cancer activity, about 0 neutral, <0 antagonist.
Assay type: cell-based, human

Point of comparison: `CCCCNC(=O)NS(=O)(=O)c1ccc(C)cc1` [Tolbutamide], Difference −0.25. Against it:
- Clc1ccc2nsnc2c1NC1=NCCN1 [Tizanidine (hydrochloride)] — higher, 0.02
- C[C@@H]1CCN(C(=O)CC#N)C[C@@H]1N(C)c1ncnc2[nH]ccc12 [Tofacitinib] — higher, −0.07
- c1ccc(CC2=NCCN2)cc1 [Tolazoline (hydrochloride)] — the same, −0.25

Same assay, conditions: Complete minus Cholesterol-free; […]

Point of comparison: `CN(C)c1cc(NC(=O)CNC(C)(C)C)c(O)c2c1C[C@H]1C[C@H]3[C@H](N(C)C)C(O)=C(C(N)=O)C(=O)[C@@]3(O)C(O)=C1C2=O` [Tigecycline], Difference −0.13. Against it:
- CCC[C@@]1(CCc2ccccc2)CC(O)=C([C@H](CC)c2cccc(NS(=O)(=O)c3ccc(C(F)(F)F)cn3)c2)C(=O)O1 [Tipranavir] — lower, −0.27

Same assay, conditions: Complete minus Cholesterol-free; greater than 0 enhanced anti-cancer activity, about 0 neutral, below 0 antagonist

For `CCCCCCCCCCCCCCCC[N+](C)(C)CCN(Cc1ccc(OC)cc1)c1ncccn1.[Br-]` [Thonzonium (bromide)], the Difference was −0.13.

Same assay, conditions: NCI-H292 cells, FDA drug library screen, cholesterol-free media without statin

Point of comparison: `CN(C)c1cc(NC(=O)CNC(C)(C)C)c(O)c2c1C[C@H]1C[C@H]3[C@H](N(C)C)C(O)=C(C(N)=O)C(=O)[C@@]3(O)C(O)=C1C2=O` [Tigecycline], Cholesterol-free 1.231. Against it:
- CCCCCCCCCCCCCCCC[N+](C)(C)CCN(Cc1ccc(OC)cc1)c1ncccn1.[Br-] [Thonzonium (bromide)] — lower, 0.179

Same assay, conditions: NCI-H292 cells, FDA drug library screen, complete media

Point of comparison: `CN(C)c1cc(NC(=O)CNC(C)(C)C)c(O)c2c1C[C@H]1C[C@H]3[C@H](N(C)C)C(O)=C(C(N)=O)C(=O)[C@@]3(O)C(O)=C1C2=O` [Tigecycline], Complete 1.106. Against it:
- CCCCCCCCCCCCCCCC[N+](C)(C)CCN(Cc1ccc(OC)cc1)c1ncccn1.[Br-] [Thonzonium (bromide)] — lower, 0.05155

Same assay, conditions: NCI-H292 cells, cholesterol-free media without statin

Point of comparison: `c1ccc(CC2=NCCN2)cc1` [Tolazoline (hydrochloride)], Cholesterol-free 1.249. Against it:
- CCC[C@@]1(CCc2ccccc2)CC(O)=C([C@H](CC)c2cccc(NS(=O)(=O)c3ccc(C(F)(F)F)cn3)c2)C(=O)O1 [Tipranavir] — lower, 0.9401
- CCCCNC(=O)NS(=O)(=O)c1ccc(C)cc1 [Tolbutamide] — lower, 1.099

Same assay, conditions: NCI-H292 cells, cholesterol-free media without statin, FDA drug library screen

Point of comparison: `Clc1ccc2nsnc2c1NC1=NCCN1` [Tizanidine (hydrochloride)], Cholesterol-free 1.07. Against it:
- C[C@@H]1CCN(C(=O)CC#N)C[C@@H]1N(C)c1ncnc2[nH]ccc12 [Tofacitinib] — higher, 1.303

Same assay, conditions: NCI-H292 cells, complete media

Point of comparison: `CCCCNC(=O)NS(=O)(=O)c1ccc(C)cc1` [Tolbutamide], Complete 0.8474. Against it:
- CCC[C@@]1(CCc2ccccc2)CC(O)=C([C@H](CC)c2cccc(NS(=O)(=O)c3ccc(C(F)(F)F)cn3)c2)C(=O)O1 [Tipranavir] — lower, 0.6703
- c1ccc(CC2=NCCN2)cc1 [Tolazoline (hydrochloride)] — higher, 0.9982

Same assay, conditions: NCI-H292 cells, complete media, FDA drug library screen

Point of comparison: `C[C@@H]1CCN(C(=O)CC#N)C[C@@H]1N(C)c1ncnc2[nH]ccc12` [Tofacitinib], Complete 1.238. Against it:
- Clc1ccc2nsnc2c1NC1=NCCN1 [Tizanidine (hydrochloride)] — lower, 1.09

Each molecule was assayed on NCI-H292 lung cancer cells (assay: FDA drug screening, complete media vs cholesterol-free media with simvastatin (TABLE 2)). Settings: NCI-H292 cells, FDA drug library screen, cholesterol-free media with simvastatin 0.04 μM.
Assay type: cell-based, human

With `CCCCCCCCCCCCCCCC[N+](C)(C)CCN(Cc1ccc(OC)cc1)c1ncccn1.[Br-]` [Thonzonium (bromide)] the “Cholesterol-free media + simvastatin (0.04 μM)” value was 0.2494.

Same assay, conditions: NCI-H292 cells, FDA drug library screen, complete media

For `CCCCCCCCCCCCCCCC[N+](C)(C)CCN(Cc1ccc(OC)cc1)c1ncccn1.[Br-]` [Thonzonium (bromide)], the “Complete Media” value was 0.5638.

Same assay, conditions: NCI-H292 cells, FDA library drug in cholesterol-free media with simvastatin 0.04 μM

`CN(C)c1cc(NC(=O)CNC(C)(C)C)c(O)c2c1C[C@H]1C[C@H]3[C@H](N(C)C)C(O)=C(C(N)=O)C(=O)[C@@]3(O)C(O)=C1C2=O` [Tigecycline] was tested, and the “Cholesterol-free media + simvastatin (0.04 μM)” value was 1.179.

Same assay, conditions: NCI-H292 cells, FDA library drug in complete media

In the case of `CN(C)c1cc(NC(=O)CNC(C)(C)C)c(O)c2c1C[C@H]1C[C@H]3[C@H](N(C)C)C(O)=C(C(N)=O)C(=O)[C@@]3(O)C(O)=C1C2=O` [Tigecycline], the “Complete Media” value was 0.8929.

Same assay, conditions: NCI-H292 cells, cholesterol-free media with simvastatin 0.04 μM; FDA drug library screen (TABLE 2)

In the case of `CCC[C@@]1(CCc2ccccc2)CC(O)=C([C@H](CC)c2cccc(NS(=O)(=O)c3ccc(C(F)(F)F)cn3)c2)C(=O)O1` [Tipranavir], the “Cholesterol-free media + simvastatin (0.04 μM)” value was 1.22.

Same assay, conditions: NCI-H292 cells, cholesterol-free media with simvastatin 0.04 μM; cell growth value in FDA drug screen

For `C[C@@H]1CCN(C(=O)CC#N)C[C@@H]1N(C)c1ncnc2[nH]ccc12` [Tofacitinib], the “Cholesterol-free media + simvastatin (0.04 μM)” value was 1.188.

Same assay, conditions: NCI-H292 cells, complete media; FDA drug library screen (TABLE 2)

For `CCC[C@@]1(CCc2ccccc2)CC(O)=C([C@H](CC)c2cccc(NS(=O)(=O)c3ccc(C(F)(F)F)cn3)c2)C(=O)O1` [Tipranavir], the “Complete Media” value was 1.177.

Same assay, conditions: NCI-H292 cells, complete media; cell growth value in FDA drug screen

With `C[C@@H]1CCN(C(=O)CC#N)C[C@@H]1N(C)c1ncnc2[nH]ccc12` [Tofacitinib] the “Complete Media” value was 1.224.

Same assay, conditions: NCI-H292 cells, drug in cholesterol-free media with simvastatin 0.04 μM

Point of comparison: `Clc1ccc2nsnc2c1NC1=NCCN1` [Tizanidine (hydrochloride)], “Cholesterol-free media + simvastatin (0.04 μM)” value 1.174. Against it:
- c1ccc(CC2=NCCN2)cc1 [Tolazoline (hydrochloride)] — higher, 1.363
- CCCCNC(=O)NS(=O)(=O)c1ccc(C)cc1 [Tolbutamide] — lower, 1.123

Same assay, conditions: NCI-H292 cells, drug in complete media

Point of comparison: `Clc1ccc2nsnc2c1NC1=NCCN1` [Tizanidine (hydrochloride)], “Complete Media” value 0.9856. Against it:
- c1ccc(CC2=NCCN2)cc1 [Tolazoline (hydrochloride)] — higher, 1.126
- CCCCNC(=O)NS(=O)(=O)c1ccc(C)cc1 [Tolbutamide] — lower, 0.9256

Same assay, conditions: complete media minus cholesterol-free media + simvastatin (0.04 μM); […]

Molecule `CCC[C@@]1(CCc2ccccc2)CC(O)=C([C@H](CC)c2cccc(NS(=O)(=O)c3ccc(C(F)(F)F)cn3)c2)C(=O)O1` [Tipranavir] has a Difference of −0.04.

Same assay, conditions: complete media minus cholesterol-free media + simvastatin; >0 enhanced anti-cancer activity, about 0 neutral, <0 antagonist

Point of comparison: `CCCCCCCCCCCCCCCC[N+](C)(C)CCN(Cc1ccc(OC)cc1)c1ncccn1.[Br-]` [Thonzonium (bromide)], Difference 0.31. Against it:
- C[C@@H]1CCN(C(=O)CC#N)C[C@@H]1N(C)c1ncnc2[nH]ccc12 [Tofacitinib] — lower, 0.04

Same assay, conditions: complete media vs cholesterol-free media + simvastatin (0.04 μM); >0 enhanced anti-cancer activity, about 0 neutral, <0 antagonist

Point of comparison: `c1ccc(CC2=NCCN2)cc1` [Tolazoline (hydrochloride)], Difference −0.24. Against it:
- Clc1ccc2nsnc2c1NC1=NCCN1 [Tizanidine (hydrochloride)] — higher, −0.19
- CCCCNC(=O)NS(=O)(=O)c1ccc(C)cc1 [Tolbutamide] — higher, −0.20

Same assay, conditions: complete media vs cholesterol-free media + simvastatin (0.04 μM); […]

Molecule `CN(C)c1cc(NC(=O)CNC(C)(C)C)c(O)c2c1C[C@H]1C[C@H]3[C@H](N(C)C)C(O)=C(C(N)=O)C(=O)[C@@]3(O)C(O)=C1C2=O` [Tigecycline] has a Difference of −0.29.
